Biological target: T1, bovine cardiac myofibrils (Bos taurus, UniProt Q9BE39)
T1 construct: full-length cardiac myosin in the context of the native sarcomere; from tissue; host or cells: bovine cardiac left ventricular tissue, homogenized with detergent (triton X-100)
Assay: Skinned bovine cardiac myofibril ATPase assay (PK/LDH-coupled)
Format: biochemical
Settings: inhibition of steady-state ATPase activity of bovine cardiac myofibrils, calcium at 75% activation (pCa75), PM12 buffer pH 6.8; for IC50: read-out: CDMF75 IC50
Protocol: To evaluate the effect of compounds on the ATPase activity of full-length cardiac myosin in the context of the native sarcomere, skinned myofibril assays were performed. Bovine cardiac myofibrils were obtained by homogenizing bovine cardiac left ventricular tissue in the presence of a detergent such as triton X-100. Such treatment removes membranes and a majority of the soluble cytoplasmic proteins but leaves intact the cardiac sarcomeric acto-myosin apparatus. Myofibril preparations retain the ability to hydrolyze ATP in an Ca^2+ regulated manner ATPase activities of such myofibril preparations in the presence and absence of compounds were assayed at Ca^2+ concentrations activating to a defined fraction of the maximal rate (i.e., 25%, 75%). Small molecule agents were assessed for their ability to inhibit the steady-state ATPase activity of bovine cardiac myofibrils using pyruvate kinase and lactate dehydrogenase (PK/LDH)-coupled enzyme system. This assay regenerates myosin-produced ADP into ATP by oxidizing NADH, producing an absorbance change at 340 nm. Prior to testing small molecule agents, the bovine cardiac myofibrils were assessed for their calcium responsiveness and the calcium concentration that achieves either a 50% (pCa50) or 75% (pCa75) activation of the myofibril system was chosen as the final condition for assessing the inhibitory activity of the small molecule agents. All enzymatic activity was measured in a buffered solution containing 12 mM PIPES (piperazine-N,N′-bis(2-ethanesulfonic acid), 2 mM magnesium chloride at pH 6.8 (PM 12 buffer). Final assay conditions were 1 mg/mL of bovine cardiac myofibrils, 4 U/mL pyruvate kinase, 6 U/mL lactate dehydrogenase, 50 μM ATP, 0.1 mg/mL BSA (bovine serum albumin), 10 ppm antifoam, 1 mM DTT, 0.5 mM NADH, 1.5 mM PEP, 0.6 mM EGTA, and an amount of CaCl2) sufficient to achieve either 50% or 75% activation of the myofibril ATPase activity. Results for compounds tested are provided in Table A. Compounds tested were prepared in accordance with the synthetic procedures described herein.

T1 sequence (Q9BE39 whole entry): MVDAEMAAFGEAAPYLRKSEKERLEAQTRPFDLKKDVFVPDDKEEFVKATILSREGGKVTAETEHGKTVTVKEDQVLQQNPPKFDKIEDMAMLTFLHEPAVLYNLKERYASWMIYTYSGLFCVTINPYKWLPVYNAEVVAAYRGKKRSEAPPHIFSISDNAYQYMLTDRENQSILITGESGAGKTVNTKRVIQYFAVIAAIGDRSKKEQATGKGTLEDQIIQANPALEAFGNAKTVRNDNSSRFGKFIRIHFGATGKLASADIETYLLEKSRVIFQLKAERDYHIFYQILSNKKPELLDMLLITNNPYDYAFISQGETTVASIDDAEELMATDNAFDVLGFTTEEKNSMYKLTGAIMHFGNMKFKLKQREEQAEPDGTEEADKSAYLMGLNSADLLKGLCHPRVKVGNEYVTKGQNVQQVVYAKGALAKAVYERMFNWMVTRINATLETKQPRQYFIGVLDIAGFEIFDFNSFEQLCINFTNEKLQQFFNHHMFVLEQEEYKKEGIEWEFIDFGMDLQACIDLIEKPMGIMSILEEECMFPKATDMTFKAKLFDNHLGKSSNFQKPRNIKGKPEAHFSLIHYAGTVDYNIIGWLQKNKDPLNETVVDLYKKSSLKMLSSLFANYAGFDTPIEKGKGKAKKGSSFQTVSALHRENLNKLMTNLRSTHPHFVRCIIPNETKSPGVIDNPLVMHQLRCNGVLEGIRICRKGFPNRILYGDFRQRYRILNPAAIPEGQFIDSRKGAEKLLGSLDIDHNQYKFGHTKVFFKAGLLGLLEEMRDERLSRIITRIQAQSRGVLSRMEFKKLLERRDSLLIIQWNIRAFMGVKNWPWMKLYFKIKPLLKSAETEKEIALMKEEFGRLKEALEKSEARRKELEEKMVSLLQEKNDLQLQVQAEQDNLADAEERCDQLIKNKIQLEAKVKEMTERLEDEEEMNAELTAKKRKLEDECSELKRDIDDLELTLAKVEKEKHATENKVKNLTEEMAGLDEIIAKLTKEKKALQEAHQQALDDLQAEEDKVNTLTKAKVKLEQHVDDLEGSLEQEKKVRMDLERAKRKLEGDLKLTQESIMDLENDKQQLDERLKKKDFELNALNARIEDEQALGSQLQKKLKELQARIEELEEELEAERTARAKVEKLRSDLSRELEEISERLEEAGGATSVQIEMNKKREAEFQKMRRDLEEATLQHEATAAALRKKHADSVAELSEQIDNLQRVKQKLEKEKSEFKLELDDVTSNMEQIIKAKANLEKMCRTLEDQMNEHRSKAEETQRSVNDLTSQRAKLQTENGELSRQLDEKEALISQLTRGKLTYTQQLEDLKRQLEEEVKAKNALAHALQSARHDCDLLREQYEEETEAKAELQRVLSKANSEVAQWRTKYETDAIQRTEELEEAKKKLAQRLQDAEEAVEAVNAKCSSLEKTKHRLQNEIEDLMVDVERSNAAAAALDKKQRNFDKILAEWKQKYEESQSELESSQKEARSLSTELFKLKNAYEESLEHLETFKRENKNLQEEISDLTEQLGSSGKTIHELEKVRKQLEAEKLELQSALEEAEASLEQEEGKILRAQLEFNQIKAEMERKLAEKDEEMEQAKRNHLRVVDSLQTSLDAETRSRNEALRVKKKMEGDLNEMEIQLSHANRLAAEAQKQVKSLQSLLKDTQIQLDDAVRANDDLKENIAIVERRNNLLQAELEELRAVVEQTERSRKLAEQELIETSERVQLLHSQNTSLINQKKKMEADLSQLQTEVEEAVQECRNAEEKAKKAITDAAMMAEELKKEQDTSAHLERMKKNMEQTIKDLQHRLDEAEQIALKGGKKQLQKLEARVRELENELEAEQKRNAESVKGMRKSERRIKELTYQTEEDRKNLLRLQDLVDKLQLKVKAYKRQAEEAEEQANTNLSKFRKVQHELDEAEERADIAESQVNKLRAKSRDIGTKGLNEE
T1 sequence (P85100 whole entry partner): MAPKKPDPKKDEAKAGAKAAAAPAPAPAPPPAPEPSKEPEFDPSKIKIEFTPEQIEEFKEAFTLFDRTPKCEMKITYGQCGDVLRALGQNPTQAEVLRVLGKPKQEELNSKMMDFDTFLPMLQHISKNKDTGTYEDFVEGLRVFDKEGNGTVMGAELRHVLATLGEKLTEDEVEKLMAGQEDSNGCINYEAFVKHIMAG
T1 sequence (Q3SZE5 whole entry partner): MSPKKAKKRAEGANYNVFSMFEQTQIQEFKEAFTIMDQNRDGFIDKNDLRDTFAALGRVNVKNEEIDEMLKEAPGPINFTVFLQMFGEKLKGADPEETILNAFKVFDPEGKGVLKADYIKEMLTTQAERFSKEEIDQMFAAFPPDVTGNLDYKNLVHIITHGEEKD

Structure (SMILES) | CDMF75 IC15 [µM] | IC50 [µM]
O=C1NC2(CCc3cc(-c4noc(C(F)F)n4)ccc32)CO1 (single isomer, unassigned) [Compound 38B] | >39.2 | > 39.2
CCc1nc(-c2ccc3c(c2)OCC32COC(=O)N2)no1 (single isomer, unassigned) [Compound 41A] | 0.2 | 1
CCc1nc(-c2ccc3c(c2)OCC32COC(=O)N2)no1 (single isomer, unassigned) [Compound 41B] | >39.2 | > 39.2
CCc1nc(-c2ccc3c(c2)CCC3C(=O)Nc2cnn(C)c2)no1 (centres unmarked) [Compound 1, 5-(5-ethyl-1,2,4-oxadiazol-3-yl)-N-(1-methyl-1H-pyrazol-4-yl)-2,3-dihydro-1H-indene-1-carboxamide] | 3.9 | 15.9

Source: patent US11964967B2, “Cardiac sarcomere inhibitors” (Cytokinetics, Inc., priority 2018, dated 2024)
